Results on 34 compounds are retold here after patent US11919887B2, “Substituted tetrahydrofurans as modulators of sodium channels” (Vertex Pharmaceuticals Incorporated, priority 2019, dated 2024).

A value given as a limit tells only on which side of the number the result lay.

human Nav 1.8, sequence (Q9Y5Y9 whole entry, looked up, the tested form may be a part): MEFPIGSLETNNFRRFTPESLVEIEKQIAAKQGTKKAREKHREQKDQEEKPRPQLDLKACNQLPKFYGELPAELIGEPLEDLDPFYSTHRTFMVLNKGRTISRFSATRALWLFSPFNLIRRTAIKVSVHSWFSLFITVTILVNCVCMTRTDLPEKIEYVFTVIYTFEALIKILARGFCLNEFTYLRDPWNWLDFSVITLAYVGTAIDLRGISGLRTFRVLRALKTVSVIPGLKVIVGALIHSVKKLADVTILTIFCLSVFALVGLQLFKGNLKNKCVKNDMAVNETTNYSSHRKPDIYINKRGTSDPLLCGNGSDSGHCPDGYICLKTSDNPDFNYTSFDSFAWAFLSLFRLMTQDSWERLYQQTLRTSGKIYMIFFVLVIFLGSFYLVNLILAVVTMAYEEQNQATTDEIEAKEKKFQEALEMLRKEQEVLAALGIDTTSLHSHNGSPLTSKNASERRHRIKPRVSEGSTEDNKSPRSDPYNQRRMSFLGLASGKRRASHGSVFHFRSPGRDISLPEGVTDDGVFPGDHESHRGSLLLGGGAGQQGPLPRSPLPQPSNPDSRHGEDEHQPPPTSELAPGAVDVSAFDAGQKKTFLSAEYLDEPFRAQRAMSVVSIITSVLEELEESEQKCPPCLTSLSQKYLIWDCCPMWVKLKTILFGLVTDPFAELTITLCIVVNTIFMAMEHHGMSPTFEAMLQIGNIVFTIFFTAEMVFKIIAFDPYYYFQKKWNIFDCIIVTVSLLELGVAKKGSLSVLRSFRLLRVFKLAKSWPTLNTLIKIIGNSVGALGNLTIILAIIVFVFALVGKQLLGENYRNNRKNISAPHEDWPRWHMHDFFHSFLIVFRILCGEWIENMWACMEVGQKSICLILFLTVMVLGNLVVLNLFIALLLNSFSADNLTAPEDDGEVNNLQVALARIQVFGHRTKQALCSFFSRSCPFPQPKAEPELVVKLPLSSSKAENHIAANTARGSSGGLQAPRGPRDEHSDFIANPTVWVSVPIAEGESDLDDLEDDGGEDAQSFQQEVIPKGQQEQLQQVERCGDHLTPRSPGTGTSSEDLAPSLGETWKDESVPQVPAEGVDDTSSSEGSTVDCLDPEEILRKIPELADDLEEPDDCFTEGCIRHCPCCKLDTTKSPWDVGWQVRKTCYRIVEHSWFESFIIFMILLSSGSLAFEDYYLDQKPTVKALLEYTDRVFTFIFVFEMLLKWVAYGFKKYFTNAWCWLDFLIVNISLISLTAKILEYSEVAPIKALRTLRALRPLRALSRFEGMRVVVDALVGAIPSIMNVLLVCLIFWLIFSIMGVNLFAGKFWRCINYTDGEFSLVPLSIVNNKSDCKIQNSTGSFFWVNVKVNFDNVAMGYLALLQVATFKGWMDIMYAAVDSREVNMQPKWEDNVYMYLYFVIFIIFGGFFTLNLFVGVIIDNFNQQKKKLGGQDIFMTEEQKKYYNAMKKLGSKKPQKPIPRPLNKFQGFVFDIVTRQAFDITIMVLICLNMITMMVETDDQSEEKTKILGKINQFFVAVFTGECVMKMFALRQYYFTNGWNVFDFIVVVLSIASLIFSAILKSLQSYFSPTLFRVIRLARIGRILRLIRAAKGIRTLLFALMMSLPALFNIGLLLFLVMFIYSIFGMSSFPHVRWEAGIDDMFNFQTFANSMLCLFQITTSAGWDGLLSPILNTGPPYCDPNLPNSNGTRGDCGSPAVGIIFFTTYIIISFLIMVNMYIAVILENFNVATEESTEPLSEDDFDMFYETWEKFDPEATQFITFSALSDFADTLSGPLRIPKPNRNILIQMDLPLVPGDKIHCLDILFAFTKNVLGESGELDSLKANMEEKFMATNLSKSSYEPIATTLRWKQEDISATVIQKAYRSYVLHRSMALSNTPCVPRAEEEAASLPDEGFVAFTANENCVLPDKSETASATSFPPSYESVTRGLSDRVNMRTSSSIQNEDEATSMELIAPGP

One experiment concerns the target human Nav 1.8 (Homo sapiens, UniProt Q9Y5Y9). As to the kind of experiment: E-VIPR assay detecting and measuring Nav inhibition (HEK cells expressing truncated human Nav 1.8). The format is cell-based. The following applies: in the Absence of Human Serum in the E-VIPR Assay. A digest of the protocol: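 HEK cells expressing truncated human Nav1.8, transduced with KIR2.1 BacMam, were loaded with CC2-DMPE/DiSBAC6(3) FRET dyes and tested under electrical stimulation (E-VIPR). Compounds were run as 11-point 3-fold dilutions, top 300 nM final, 0.625% DMSO, with or without 25% human serum.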
As to `COc1c([C@@H]2[C@@H](C)[C@](C)(C(F)(F)F)O[C@H]2C(=O)Nc2ccnc(C(N)=O)c2)ccc(F)c1F` [Compound 50, 4-[[(2R,3S,4R,5R)-3-(3,4-difluoro-2-methoxy-phenyl)-4,5-dimethyl-5-(trifluoromethyl)tetrahydrofuran-2-carbonyl]amino]pyridine-2-carboxamide], the IC50 lay within 10 to 100 nM.
In turn, `[2H]c1cc([C@H]2[C@H](C(=O)Nc3ccnc(C(N)=O)c3)O[C@@](C)(C(F)(F)F)[C@H]2C)c(OC)c(F)c1F` [Compound 148, 4-[[(2R,3S,4S,5R)-3-(5-deuterio-3,4-difluoro-2-methoxy-phenyl)-4,5-dimethyl-5-(trifluoromethyl)tetrahydrofuran-2-carbonyl]amino]pyridine-2-carboxamide] gave a half-maximal inhibitory concentration (IC50) of less than 10 nM.

Still in this experiment, the particulars now being: in the Absence of Human Serum in the E-VIPR Assay; read-out: IC50.
On to `COc1c([C@H]2[C@H](C(=O)Nc3cccc(C(N)=O)n3)O[C@@](C)(C(F)(F)F)[C@H]2C)ccc(F)c1F` [Compound 114, 6-[[(2R,3S,4S,5R)-3-(3,4-difluoro-2-methoxy-phenyl)-4,5-dimethyl-5-(trifluoromethyl)tetrahydrofuran-2-carbonyl]amino]pyridine-2-carboxamide], for which the IC50 was in the range of 10 to 100 nM.
In the case of `COc1c([C@H]2[C@H](C(=O)Nc3ccnc(C(N)=O)c3)O[C@@](C)(C(F)(F)F)[C@H]2C)ccc(C(F)F)c1F` (single isomer, unassigned) [Compound 136], the IC50 is less than 10 nM.
Same read-out and setting: the figure for `Cc1c([C@@H]2[C@@H](C)[C@@](C)(C(F)(F)F)O[C@H]2C(=O)Nc2ccnc(C(N)=O)c2)ccc(F)c1F` (stereo in doubt) [Compound 133, rel-(2R,3S,4R,5S)-4-[[3-(3,4-difluoro-2-methyl-phenyl)-4,5-dimethyl-5-(trifluoromethyl)tetrahydrofuran-2-carbonyl]amino]pyridine-2-carboxamide] is 10 to 100 nM; for `C=Cc1c([C@H]2[C@H](C(=O)Nc3ccnc(C(N)=O)c3)O[C@@](C)(C(F)(F)F)[C@H]2C)ccc(F)c1F` [Compound 149, 4-[[(2R,3S,4S,5R)-3-(3,4-difluoro-2-vinyl-phenyl)-4,5-dimethyl-5-(trifluoromethyl)tetrahydrofuran-2-carbonyl]amino]pyridine-2-carboxamide] it is less than 10 nM.
Still for that read-out and setting: the figure for `COc1c([C@H]2[C@H](C(=O)Nc3cc(C(N)=O)ccn3)O[C@@](C)(C(F)(F)F)[C@H]2C)ccc(F)c1F` [Compound 120, 2-[[(2R,3S,4S,5R)-3-(3,4-difluoro-2-methoxy-phenyl)-4,5-dimethyl-5-(trifluoromethyl)tetrahydrofuran-2-carbonyl]amino]pyridine-4-carboxamide] is 10 to 100 nM.

The same experiment, now with this note: in the Presence of Human Serum in the E-VIPR Assay; read-out: IC50.
As for `COc1c([C@@H]2[C@H](C)[C@H](C(F)(F)F)O[C@H]2C(=O)Nc2ccnc(C(N)=O)c2)ccc(F)c1F` (relative stereo) [Compound 25, rel-(2S,3R,4R,5S)-4-[[3-(3,4-difluoro-2-methoxy-phenyl)-4-methyl-5-(trifluoromethyl)tetrahydrofuran-2-carbonyl]amino]pyridine-2-carboxamide], the half-inhibitory concentration (IC50) was less than 10 nM.
Same read-out and setting: the figure for `COc1cc(F)ccc1[C@@H]1[C@@H](C)[C@@](C)(C(F)(F)F)O[C@H]1C(=O)Nc1ccnc(C(N)=O)c1` (single isomer, unassigned) [Compound 36] is more than 1000 nM; for `COc1cc(F)ccc1[C@@H]1C[C@](C)(C(F)(F)F)O[C@H]1C(=O)Nc1ccnc(C(N)=O)c1` (stereo in doubt) [Compound 68, rel-(2R,3S,5R)-4-[[3-(4-fluoro-2-methoxy-phenyl)-5-methyl-5-(trifluoromethyl)tetrahydrofuran-2-carbonyl]amino]pyridine-2-carboxamide] it is 10 to 100 nM; for `C[C@@H]1[C@H](c2ccc(F)cc2OC(F)F)[C@@H](C(=O)Nc2ccc(F)c(C(N)=O)c2)O[C@]1(C)C(F)(F)F` (single isomer, unassigned) [Compound 31] it is more than 1000 nM.
Same read-out and setting: the figure for `CNC(=O)c1cc(NC(=O)[C@@H]2O[C@@](C)(C(F)(F)F)C[C@H]2c2ccc(F)c(Cl)c2OC)ccn1` (single isomer, unassigned) [Compound 60] is 10 to 100 nM; for `COc1c([C@H]2C[C@@H](C(F)(F)F)O[C@@H]2C(=O)Nc2ccnc(C(N)=O)c2)ccc(F)c1C` (single isomer, unassigned) [Compound 111] it is more than 1000 nM.
Still for that read-out and setting: the figure for `C[C@H]1[C@@H](c2ccc(F)c(F)c2)[C@H](C(=O)Nc2ccnc(C(N)=O)c2)O[C@@]1(C)C(F)(F)F` (single isomer, unassigned) [Compound 91] is 100 to 1000 nM.
In the case of `COc1c([C@H]2C[C@@](C)(C(F)(F)F)O[C@@H]2C(=O)Nc2ccnc(C(N)=O)c2)ccc(F)c1C` (single isomer, unassigned) [Compound 71], the IC50 was more than 1000 nM.
With `COc1c([C@@H]2C[C@](C)(C(F)(F)F)O[C@H]2C(=O)Nc2ccc(F)c(C(N)=O)c2)ccc(F)c1F` (single isomer, unassigned) [Compound 47], the IC50 is 10 to 100 nM.
Consider `COc1c([C@@H]2C[C@H](C(C)(C)C)O[C@H]2C(=O)Nc2ccnc(C(N)=O)c2)ccc(F)c1F` (single isomer, unassigned) [Compound 66], for which the IC50 fell in the range of 100 to 1000 nM.
On the same count and under the same terms, the value for `COc1cc(F)ccc1[C@@H]1[C@@H](C(=O)Nc2ccnc(C(N)=O)c2)O[C@@](C)(C(F)(F)F)[C@H]1C` (single isomer, unassigned) [Compound 37] was 100 to 1000 nM; that for `C[C@H]1[C@@H](c2ccc(F)cc2OC(F)F)[C@H](C(=O)Nc2ccnc(C(N)=O)c2)O[C@@]1(C)C(F)(F)F` (stereo in doubt) [Compound 2, rel-(2R,3S,4S,5R)-4-[[3-[2-(difluoromethoxy)-4-fluoro-phenyl]-4,5-dimethyl-5-(trifluoromethyl)tetrahydrofuran-2-carbonyl]amino]pyridine-2-carboxamide] was 100 to 1000 nM.
Same read-out and setting: the value for `COc1nc(C(F)(F)F)ccc1[C@H]1[C@H](C(=O)Nc2ccnc(C(N)=O)c2)O[C@@](C)(C(F)(F)F)[C@H]1C` (stereo in doubt) [Compound 138, rel-(2R,3S,4S,5R)-4-[[3-[2-methoxy-6-(trifluoromethyl)-3-pyridyl]-4,5-dimethyl-5-(trifluoromethyl)tetrahydrofuran-2-carbonyl]amino]pyridine-2-carboxamide] was 10 to 100 nM; that for `COc1c([C@@H]2C[C@H](C(F)(F)F)O[C@H]2C(=O)Nc2ccnc(C(N)=O)c2)ccc(F)c1C` (single isomer, unassigned) [Compound 112] was 100 to 1000 nM.
On the same count and under the same terms, the figure for `COc1c([C@@H]2[C@@H](C(=O)Nc3ccnc(C(N)=O)c3)O[C@](C)(C(F)(F)F)[C@@H]2C2CC2)ccc(F)c1F` (single isomer, unassigned) [Compound 94] is less than 10 nM; for `COc1c([C@H]2[C@@H](C(=O)Nc3ccnc(C(N)=O)c3)OC(C)(C)[C@@H]2C)ccc(F)c1F` (racemic) [Compound 100, rac-(2S,3S,4R)-4-[[3-(3,4-difluoro-2-methoxy-phenyl)-4,5,5-trimethyl-tetrahydrofuran-2-carbonyl]amino]pyridine-2-carboxamide] it is more than 1000 nM.
For `C[C@@H]1[C@H](c2ccc(F)cc2OC(F)F)[C@@H](C(=O)Nc2ccnc(C(N)=O)c2)O[C@@]1(C)C(F)(F)F` (racemic) [compound 28], the 50% inhibitory concentration (IC50) was 10 to 100 nM.
The same measure, in the same setting: the figure for `COc1c([C@@H]2[C@@H](C)C(C)(C)O[C@H]2C(=O)Nc2ccnc(C(N)=O)c2)ccc(F)c1F` (single isomer, unassigned) [Compound 103] is more than 1000 nM.
As for `COc1c([C@@H]2C[C@](C)(C(F)(F)F)O[C@H]2C(=O)Nc2ccnc(C(N)=O)c2)ccc(F)c1C` (single isomer, unassigned) [Compound 72], the concentration for half-maximal inhibition (IC50) lay within 10 to 100 nM.
On to `COc1c([C@H]2[C@H](C(=O)Nc3ccnc(C(N)=O)c3)O[C@@](C)(C(F)F)[C@H]2C)ccc(F)c1F` (stereo in doubt) [Compound 99, rel-(2R,3S,4S,5R)-4-[[3-(3,4-difluoro-2-methoxy-phenyl)-5-(difluoromethyl)-4,5-dimethyl-tetrahydrofuran-2-carbonyl]amino]pyridine-2-carboxamide], for which the half-maximal inhibitory concentration (IC50) is more than 1000 nM.
Still for that read-out and setting: the figure for `CC[C@@H]1[C@H](c2ccc(F)c(F)c2OC)[C@@H](C(=O)Nc2ccnc(C(N)=O)c2)O[C@]1(C)C(F)(F)F` (single isomer, unassigned) [Compound 92] is more than 1000 nM; for `COc1c([C@H]2[C@H](C(=O)Nc3ccnc(C(N)=O)c3)O[C@@](C)(C(F)(F)F)[C@H]2C2CC2)ccc(F)c1F` (single isomer, unassigned) [Compound 95] it is more than 1000 nM; for `CCc1c(F)ccc([C@@H]2C[C@](C)(C(F)(F)F)O[C@H]2C(=O)Nc2ccnc(C(N)=O)c2)c1OC` (single isomer, unassigned) [Compound 78] it is 10 to 100 nM.
The same measure, in the same setting: the value for `CC(C)Oc1c([C@H]2[C@H](C(=O)Nc3ccnc(C(N)=O)c3)O[C@@](C)(C(F)(F)F)[C@H]2C)ccc(F)c1F` (single isomer, unassigned) [Compound 89] was less than 10 nM; that for `COc1c([C@@H]2[C@H](C)[C@H](C)O[C@H]2C(=O)Nc2ccnc(C(N)=O)c2)ccc(F)c1F` (stereo in doubt) [Compound 108, rel-(2R,3S,4S,5S)-4-[[3-(3,4-difluoro-2-methoxy-phenyl)-4,5-dimethyl-tetrahydrofuran-2-carbonyl]amino]pyridine-2-carboxamide] was 100 to 1000 nM; that for `COc1c([C@H]2C[C@@](C)(C(F)(F)F)O[C@@H]2C(=O)Nc2ccc(F)c(C(N)=O)c2)ccc(F)c1F` (single isomer, unassigned) [Compound 46] was more than 1000 nM.
Still for that read-out and setting: the value for `COc1c([C@H]2C[C@](C)(CC(F)(F)F)O[C@@H]2C(=O)Nc2ccnc(C(N)=O)c2)ccc(F)c1F` (single isomer, unassigned) [Compound 83] was 100 to 1000 nM.

The term IC50 denotes the concentration that gives 50% inhibition.
